How the values were obtained:
[1] = target: Proto-oncogene tyrosine-protein kinase receptor Ret (Homo sapiens, UniProt P07949); assay: Inhibition of RET (unknown origin)
[2] = Toxicity in CB17-SCID mouse assessed as effect on body weight loss at 50 mg/kg/day administered via oral gavage measured every 2 days for 12 days; format: organism-based; conditions: in vivo, 288 h, time 12 day
[3] = target: Epithelial discoidin domain-containing receptor 1 (Homo sapiens, UniProt Q08345); assay: Inhibition of DDR1 (unknown origin)
[4] = target: Tyrosine-protein kinase receptor UFO (Homo sapiens, UniProt P30530); assay: Inhibition of Axl (unknown origin)
Ephrin type-A receptor 5 = Ephrin type-A receptor 5 (Homo sapiens, UniProt P54756); assay: Inhibition of EphA5 (unknown origin)
[5] = AUC (0 to infinity) in ICR mouse at 2.0 mg/kg, iv measured upto 24 hrs by LC-MS/MS analysis; format: ADME, organism-based; set-up: dose 2 mg/kg, time < 24 hrs, route iv; conditions: in vivo
[6] = target: Ribosomal protein S6 kinase; assay: Inhibition of P70S6K (unknown origin); format: protein assay, Homo sapiens
[7] = target: Tyrosine-protein kinase Mer (Homo sapiens, UniProt Q12866); assay: Inhibition of Mer (unknown origin)
[8] = Clearance in ICR mouse at 2.0 mg/kg, iv measured upto 24 hrs by LC-MS/MS analysis; format: ADME, organism-based; conditions: in vivo
[9] = Toxicity in CB17-SCID mouse assessed as mortality at 50 mg/kg/day administered via oral gavage measured every 2 days for 12 days; format: organism-based; conditions: in vivo, 288 h, time 12 day
[10] = target: Tyrosine-protein kinase HCK (Homo sapiens, UniProt P08631); assay: Inhibition of Hck (unknown origin)
Chain of Tyrosine-protein kinase HCK (P08631 whole entry): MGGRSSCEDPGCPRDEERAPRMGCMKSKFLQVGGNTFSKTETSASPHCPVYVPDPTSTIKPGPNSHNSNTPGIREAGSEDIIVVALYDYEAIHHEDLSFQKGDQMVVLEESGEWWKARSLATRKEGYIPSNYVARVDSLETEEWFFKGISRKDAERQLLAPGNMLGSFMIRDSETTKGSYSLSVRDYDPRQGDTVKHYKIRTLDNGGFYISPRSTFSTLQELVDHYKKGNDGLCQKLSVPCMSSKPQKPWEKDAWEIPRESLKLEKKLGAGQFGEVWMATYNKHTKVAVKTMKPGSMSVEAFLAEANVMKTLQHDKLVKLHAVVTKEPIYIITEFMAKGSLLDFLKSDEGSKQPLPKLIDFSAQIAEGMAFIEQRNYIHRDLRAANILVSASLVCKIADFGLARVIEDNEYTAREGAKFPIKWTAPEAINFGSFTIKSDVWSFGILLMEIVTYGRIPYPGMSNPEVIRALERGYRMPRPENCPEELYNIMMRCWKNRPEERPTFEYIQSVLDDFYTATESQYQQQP

[11] = AUC (0 to t) in ICR mouse at 10 mg/kg, po measured upto 24 hrs by LC-MS/MS analysis; format: ADME, organism-based; set-up: time < 24 hrs, dose 10 mg/kg, route po; conditions: in vivo
[12] = target: Vascular endothelial growth factor receptor 2 (Homo sapiens, UniProt P35968); assay: Inhibition of KDR (unknown origin)
[13] = target: Muscle, skeletal receptor tyrosine-protein kinase (Homo sapiens, UniProt O15146); assay: Inhibition of Musk (unknown origin)
[14] = target: Receptor-type tyrosine-protein kinase FLT3 (Homo sapiens, UniProt P36888); assay: Inhibition of FLT3 (unknown origin)
Chain of Receptor-type tyrosine-protein kinase FLT3 (P36888 whole entry): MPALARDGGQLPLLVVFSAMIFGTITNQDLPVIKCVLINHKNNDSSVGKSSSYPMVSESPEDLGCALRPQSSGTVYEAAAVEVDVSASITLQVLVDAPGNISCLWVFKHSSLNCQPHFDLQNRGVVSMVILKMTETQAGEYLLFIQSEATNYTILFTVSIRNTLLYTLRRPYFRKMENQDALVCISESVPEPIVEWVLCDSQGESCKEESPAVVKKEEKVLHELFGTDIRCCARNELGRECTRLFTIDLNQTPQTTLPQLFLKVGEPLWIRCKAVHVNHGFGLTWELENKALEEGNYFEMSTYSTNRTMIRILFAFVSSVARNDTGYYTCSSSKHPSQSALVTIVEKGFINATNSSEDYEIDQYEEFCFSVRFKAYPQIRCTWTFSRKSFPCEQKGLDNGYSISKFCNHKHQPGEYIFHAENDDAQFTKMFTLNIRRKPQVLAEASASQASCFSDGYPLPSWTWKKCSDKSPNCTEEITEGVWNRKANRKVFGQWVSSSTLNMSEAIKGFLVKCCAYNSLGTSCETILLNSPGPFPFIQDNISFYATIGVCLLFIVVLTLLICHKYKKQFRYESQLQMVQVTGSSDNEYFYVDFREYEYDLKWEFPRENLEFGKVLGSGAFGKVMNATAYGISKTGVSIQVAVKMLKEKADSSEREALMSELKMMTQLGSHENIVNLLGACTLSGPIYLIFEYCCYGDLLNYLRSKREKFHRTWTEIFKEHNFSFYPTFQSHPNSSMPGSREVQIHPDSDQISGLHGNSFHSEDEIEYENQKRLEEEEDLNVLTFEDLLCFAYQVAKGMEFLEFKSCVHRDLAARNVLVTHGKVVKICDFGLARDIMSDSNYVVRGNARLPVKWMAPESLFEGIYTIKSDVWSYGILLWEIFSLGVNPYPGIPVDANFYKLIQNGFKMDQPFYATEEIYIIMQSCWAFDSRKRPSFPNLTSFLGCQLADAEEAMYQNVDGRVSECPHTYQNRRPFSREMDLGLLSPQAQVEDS

Angiopoietin-1 receptor = Angiopoietin-1 receptor (Homo sapiens, UniProt Q02763); assay: Inhibition of Tie2 (unknown origin)
Ephrin type-A receptor 2 = Ephrin type-A receptor 2 (Homo sapiens, UniProt P29317); assay: Inhibition of EphA2 (unknown origin)
Chain of Ephrin type-A receptor 2 (P29317 whole entry): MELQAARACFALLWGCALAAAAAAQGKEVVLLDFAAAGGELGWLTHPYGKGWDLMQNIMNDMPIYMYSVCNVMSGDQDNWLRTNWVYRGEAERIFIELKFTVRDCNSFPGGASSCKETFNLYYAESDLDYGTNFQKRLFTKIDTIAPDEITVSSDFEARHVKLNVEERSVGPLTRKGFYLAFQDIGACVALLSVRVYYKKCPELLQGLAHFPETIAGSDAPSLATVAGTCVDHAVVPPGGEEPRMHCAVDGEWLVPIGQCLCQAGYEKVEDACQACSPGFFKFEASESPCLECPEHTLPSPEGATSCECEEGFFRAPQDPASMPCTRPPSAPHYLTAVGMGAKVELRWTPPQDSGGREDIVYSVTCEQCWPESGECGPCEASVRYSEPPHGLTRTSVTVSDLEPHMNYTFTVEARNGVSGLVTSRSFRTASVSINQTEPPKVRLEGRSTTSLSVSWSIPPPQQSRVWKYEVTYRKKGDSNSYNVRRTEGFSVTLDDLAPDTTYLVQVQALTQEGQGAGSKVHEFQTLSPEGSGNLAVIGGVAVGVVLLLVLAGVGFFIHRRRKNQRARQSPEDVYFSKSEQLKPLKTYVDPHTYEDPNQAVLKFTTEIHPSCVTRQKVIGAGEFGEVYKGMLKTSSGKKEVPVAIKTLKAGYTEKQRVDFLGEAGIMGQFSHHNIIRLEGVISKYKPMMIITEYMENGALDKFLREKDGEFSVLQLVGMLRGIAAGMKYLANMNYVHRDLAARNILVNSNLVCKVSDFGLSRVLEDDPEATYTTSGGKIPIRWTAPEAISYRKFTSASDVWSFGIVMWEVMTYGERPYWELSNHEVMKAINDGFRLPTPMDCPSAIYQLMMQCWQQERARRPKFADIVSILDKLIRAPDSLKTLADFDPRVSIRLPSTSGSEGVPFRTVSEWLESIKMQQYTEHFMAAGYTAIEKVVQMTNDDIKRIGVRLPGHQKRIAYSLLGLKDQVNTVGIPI

[15] = AUC (0 to infinity) in ICR mouse at 10 mg/kg, po measured upto 24 hrs by LC-MS/MS analysis; format: ADME, organism-based; set-up: dose 10 mg/kg, time < 24 hrs, route po; conditions: in vivo
[16] = Half life in ICR mouse at 2.0 mg/kg, iv measured upto 24 hrs by LC-MS/MS analysis; format: ADME, organism-based; conditions: in vivo
[17] = Toxicity in CB17-SCID mouse assessed as drug tolerance at 50 mg/kg/day administered via oral gavage measured every 2 days for 12 days; format: organism-based; conditions: in vivo, 288 h, time 12 day
[18] = Oral bioavailability in ICR mouse at 10 mg/kg measured upto 24 hrs by LC-MS/MS analysis; format: ADME, organism-based; conditions: in vivo
[19] = target: Vascular endothelial growth factor receptor 3 (Homo sapiens, UniProt P35916); assay: Inhibition of FLT4 (unknown origin)
Chain of Vascular endothelial growth factor receptor 3 (P35916 whole entry): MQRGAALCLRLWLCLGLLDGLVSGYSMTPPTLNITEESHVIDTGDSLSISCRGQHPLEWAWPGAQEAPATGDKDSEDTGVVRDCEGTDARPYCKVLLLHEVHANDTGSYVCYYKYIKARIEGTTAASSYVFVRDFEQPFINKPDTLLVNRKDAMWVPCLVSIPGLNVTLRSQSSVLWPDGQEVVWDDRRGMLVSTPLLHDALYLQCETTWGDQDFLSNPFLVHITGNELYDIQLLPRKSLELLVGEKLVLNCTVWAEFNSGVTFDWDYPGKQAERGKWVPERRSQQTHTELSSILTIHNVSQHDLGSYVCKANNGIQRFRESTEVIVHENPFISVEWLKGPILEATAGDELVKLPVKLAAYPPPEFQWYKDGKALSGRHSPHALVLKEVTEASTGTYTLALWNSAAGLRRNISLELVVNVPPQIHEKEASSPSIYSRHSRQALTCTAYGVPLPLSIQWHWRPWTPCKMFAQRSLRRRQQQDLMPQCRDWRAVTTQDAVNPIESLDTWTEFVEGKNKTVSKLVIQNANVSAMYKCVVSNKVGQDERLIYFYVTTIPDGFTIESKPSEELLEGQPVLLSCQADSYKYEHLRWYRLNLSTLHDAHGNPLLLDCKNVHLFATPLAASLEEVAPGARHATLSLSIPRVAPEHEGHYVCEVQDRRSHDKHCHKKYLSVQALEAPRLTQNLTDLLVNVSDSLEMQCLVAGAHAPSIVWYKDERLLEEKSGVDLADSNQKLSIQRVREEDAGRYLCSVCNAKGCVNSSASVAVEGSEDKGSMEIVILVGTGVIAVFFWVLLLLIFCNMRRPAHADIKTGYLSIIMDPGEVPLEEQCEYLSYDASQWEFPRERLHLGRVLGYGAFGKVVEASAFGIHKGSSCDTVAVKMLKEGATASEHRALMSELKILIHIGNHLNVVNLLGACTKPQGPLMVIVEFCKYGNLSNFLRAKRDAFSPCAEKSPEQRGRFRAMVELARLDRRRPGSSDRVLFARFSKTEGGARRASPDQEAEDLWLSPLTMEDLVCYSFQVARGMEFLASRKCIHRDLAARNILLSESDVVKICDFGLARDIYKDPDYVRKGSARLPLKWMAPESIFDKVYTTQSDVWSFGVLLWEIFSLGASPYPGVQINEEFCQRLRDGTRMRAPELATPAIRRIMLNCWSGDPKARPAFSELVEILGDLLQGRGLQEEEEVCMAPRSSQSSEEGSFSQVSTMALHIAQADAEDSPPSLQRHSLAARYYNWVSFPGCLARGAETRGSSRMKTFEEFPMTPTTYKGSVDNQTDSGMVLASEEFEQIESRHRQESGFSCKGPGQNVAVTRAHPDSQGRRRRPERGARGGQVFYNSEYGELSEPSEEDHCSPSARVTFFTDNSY

[20] = Cmax in ICR mouse at 10 mg/kg, po measured upto 24 hrs by LC-MS/MS analysis; format: ADME, organism-based; set-up: dose 10 mg/kg, time < 24 hrs, route po; conditions: in vivo
[21] = AUC (0 to t) in ICR mouse at 2.0 mg/kg, iv measured upto 24 hrs by LC-MS/MS analysis; format: ADME, organism-based; set-up: time < 24 hrs, dose 2 mg/kg, route iv; conditions: in vivo
[22] = Tmax in ICR mouse at 2.0 mg/kg, iv measured upto 24 hrs by LC-MS/MS analysis; format: ADME, organism-based; conditions: in vivo
[23] = Tmax in ICR mouse at 10 mg/kg, po measured upto 24 hrs by LC-MS/MS analysis; format: ADME, organism-based; conditions: in vivo
[24] = Half life in ICR mouse at 10 mg/kg, po measured upto 24 hrs by LC-MS/MS analysis; format: ADME, organism-based; conditions: in vivo
[25] = Cmax in ICR mouse at 2.0 mg/kg, iv measured upto 24 hrs by LC-MS/MS analysis; format: ADME, organism-based; set-up: dose 2 mg/kg, time < 24 hrs, route iv; conditions: in vivo
Ephrin type-A receptor 7 = Ephrin type-A receptor 7 (Homo sapiens, UniProt Q15375); assay: Inhibition of EphA7 (unknown origin)
[26] = target: Cyclin-dependent kinase 14 (Homo sapiens, UniProt O94921); assay: Inhibition of CDK14 (unknown origin)
BaF3 [27] = assay: Antiproliferative activity against mouse BaF3 cells harbouring ETV6-TRKC V601M mutant incubated for 3 days by CCK8 method; conditions: BaF3, 72 h
BaF3 [28] = assay: cells; conditions: Mus musculus, BaF3, 72 h
BaF3 [29] = assay: cells; conditions: Mus musculus, BaF3, 72 h; remark: listed apart in the source
BaF3 [30] = assay: Antiproliferative activity against mouse BaF3 cells harbouring ETV6-TRKB G639R mutant incubated for 3 days by CCK8 method; conditions: BaF3, 72 h
BaF3 [31] = assay: Antiproliferative activity against mouse BaF3 cells harbouring ETV6-TRKC G623R mutant incubated for 3 days by CCK8 method; conditions: BaF3, 72 h
BaF3 [32] = assay: Antiproliferative activity against mouse BaF3 cells harbouring ETV6-TRKC F617L mutant incubated for 3 days by CCK8 method; conditions: BaF3, 72 h
BaF3 [33] = assay: Antiproliferative activity against mouse BaF3 cells harbouring ETV6-TRKC G696C mutant incubated for 3 days by CCK8 method; conditions: BaF3, 72 h
BaF3 [34] = assay: Antiproliferative activity against mouse BaF3 cells harbouring CD74-TRKA G6678 mutant incubated for 3 days by CCK8 method; conditions: BaF3, 72 h
BaF3 [35] = assay: Antiproliferative activity against mouse BaF3 cells harbouring ETV6-TRKB G709C mutant incubated for 3 days by CCK8 method; conditions: BaF3, 72 h
BaF3 [36] = assay: Antiproliferative activity against mouse BaF3 cells harbouring CD74-NTRK1 fusion protein incubated for 3 days by CCK8 method; conditions: BaF3, 72 h
BaF3 [37] = assay: Antiproliferative activity against mouse BaF3 cells harbouring CD74-[…] mutant fusion protein incubated for 3 days by CCK8 method; format: functional, cell-based; conditions: BaF3, 72 h
BaF3 [38] = assay: Antiproliferative activity against mouse BaF3 cells harbouring TRKA-F589L fusion protein incubated for 3 days by CCK8 method; conditions: BaF3, 72 h
BaF3 [39] = assay: cells; conditions: Mus musculus, BaF3, 72 h; remark: listed apart in the source
BaF3 [40] = assay: Antiproliferative activity against mouse BaF3 cells harbouring ETV6-TRKC G696A mutant incubated for 3 days by CCK8 method; conditions: BaF3, 72 h
BaF3 [41] = assay: Antiproliferative activity against mouse BaF3 cells incubated for 3 days by CCK8 method; conditions: BaF3, 72 h
BaF3 [42] = assay: Antiproliferative activity against mouse BaF3 cells harbouring CD74-TRKA V573M mutant incubated for 3 days by CCK8 method; conditions: BaF3, 72 h
BaF3 [43] = assay: Antiproliferative activity against mouse BaF3 cells harbouring CD74-TRKA G667A mutant incubated for 3 days by CCK8 method; conditions: BaF3, 72 h
BaF3 [44] = assay: Antiproliferative activity against mouse BaF3 cells harbouring ETV6-TRKC G623E mutant incubated for 3 days by CCK8 method; conditions: BaF3, 72 h
BaF3 [45] = assay: Antiproliferative activity against mouse BaF3 cells harbouring ETV6-TRKC G6968 mutant incubated for 3 days by CCK8 method; conditions: BaF3, 72 h
BaF3 [46] = assay: Antiproliferative activity against mouse BaF3 cells harbouring wild type ETV6-TRKB incubated for 3 days by CCK8 method; conditions: BaF3, 72 h
BaF3 [47] = assay: Antiproliferative activity against mouse BaF3 cells harbouring ETV6-NTRK3 fusion protein incubated for 3 days by CCK8 method; conditions: BaF3, 72 h
BaF3 [48] = assay: Antiproliferative activity against mouse BaF3 cells harbouring ETV6-TRKB V617M mutant incubated for 3 days by CCK8 method; conditions: BaF3, 72 h
BaF3 [49] = assay: Antiproliferative activity against mouse BaF3 cells harbouring ETV6-TRKB F633L mutant incubated for 3 days by CCK8 method; conditions: BaF3, 72 h

Chain of Proto-oncogene tyrosine-protein kinase receptor Ret (P07949 whole entry): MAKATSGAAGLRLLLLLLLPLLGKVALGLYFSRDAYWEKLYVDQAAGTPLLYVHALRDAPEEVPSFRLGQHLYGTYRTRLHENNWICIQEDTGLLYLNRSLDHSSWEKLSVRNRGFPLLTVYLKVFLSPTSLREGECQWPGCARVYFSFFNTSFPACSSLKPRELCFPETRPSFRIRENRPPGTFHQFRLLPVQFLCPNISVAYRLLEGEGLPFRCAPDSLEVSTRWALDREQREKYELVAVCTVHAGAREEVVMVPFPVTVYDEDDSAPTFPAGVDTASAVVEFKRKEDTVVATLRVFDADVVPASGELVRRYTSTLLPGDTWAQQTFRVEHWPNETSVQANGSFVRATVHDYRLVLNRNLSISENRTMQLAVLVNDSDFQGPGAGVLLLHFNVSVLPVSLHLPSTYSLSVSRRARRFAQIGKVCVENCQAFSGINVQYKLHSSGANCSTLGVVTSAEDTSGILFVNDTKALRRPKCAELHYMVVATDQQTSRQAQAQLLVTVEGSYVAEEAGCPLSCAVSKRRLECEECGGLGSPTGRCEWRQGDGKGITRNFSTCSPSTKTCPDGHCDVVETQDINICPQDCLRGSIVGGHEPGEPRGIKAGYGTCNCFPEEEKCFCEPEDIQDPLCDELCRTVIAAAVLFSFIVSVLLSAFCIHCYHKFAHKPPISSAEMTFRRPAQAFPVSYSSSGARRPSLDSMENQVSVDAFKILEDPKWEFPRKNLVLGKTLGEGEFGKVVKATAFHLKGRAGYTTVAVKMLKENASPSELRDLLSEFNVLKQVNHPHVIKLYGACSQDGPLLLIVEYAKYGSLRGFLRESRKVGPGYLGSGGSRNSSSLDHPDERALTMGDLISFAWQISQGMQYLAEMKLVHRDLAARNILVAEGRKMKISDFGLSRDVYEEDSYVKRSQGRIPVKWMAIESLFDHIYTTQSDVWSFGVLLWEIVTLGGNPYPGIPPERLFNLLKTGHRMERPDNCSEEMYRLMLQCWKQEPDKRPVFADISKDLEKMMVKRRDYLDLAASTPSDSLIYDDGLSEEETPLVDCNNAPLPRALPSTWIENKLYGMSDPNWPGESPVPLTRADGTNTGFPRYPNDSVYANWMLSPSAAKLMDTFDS

## Cc1c2cc(cc1C(=O)Nc1cc(CN3CCN(C)CC3)cc(C3CC3)c1)OCCCCCCCNC(=O)c1ccc3ncc(n3n1)C#C2
[1]
  IC50: 7.48 nM
[2]
  Activity: Non-Toxic
[3]
  IC50: 23.8 nM
[4]
  IC50: 1550 nM
Ephrin type-A receptor 5
  IC50: 23 nM
[5]
  AUC(0-inf): 1280 ng·h/mL
[6]
  IC50: 66.82 nM
[7]
  IC50: 25.9 nM
[8]
  clearance: 26.7 mL/min/kg
[9]
  Activity: Non-Toxic
[10]
  IC50: 253 nM
[11]
  AUC(0-t) at 24 h: 501 ng·h/mL
[12]
  IC50: 73.6 nM
[13]
  IC50: 12.8 nM
[14]
  IC50: 11.6 nM
Angiopoietin-1 receptor
  IC50: 66.3 nM
Ephrin type-A receptor 2
  IC50: 12.8 nM
[15]
  AUC(0-inf): 707 ng·h/mL
[16]
  half-life: 1.92 h
[17]
  Activity: Non-Toxic
[18]
  bioavailability: 11%
[19]
  IC50: 59.4 nM
[20]
  Cmax: 95.2 ng/mL
[21]
  AUC(0-t) at 24 h: 1200 ng·h/mL
[22]
  Tmax: 4.8 min
[23]
  Tmax: 2.17 h
[24]
  half-life: 4.3 h
[25]
  Cmax: 626 ng/mL
Ephrin type-A receptor 7
  IC50: 1.77 nM
[26]
  IC50: 155 nM

## C[C@H]1CNC(=O)c2cnn3ccc(nc23)N[C@H](C)c2cc(F)ccc2O1 [REPOTRECTINIB]
BaF3 [27]
  IC50: 23.1 nM
BaF3 [28]
  IC50: 159 nM
BaF3 [29]
  IC50: 15.7 nM
BaF3 [30]
  IC50: 19.3 nM
BaF3 [31]
  IC50: 5.75 nM
BaF3 [32]
  IC50: 0.98 nM
BaF3 [33]
  IC50: 17 nM
BaF3 [34]
  IC50: 8.12 nM
BaF3 [35]
  IC50: 9.44 nM
BaF3 [36]
  IC50: 1.39 nM
BaF3 [37]
  IC50: 3.32 nM
BaF3 [38]
  IC50: 1.61 nM
BaF3 [39]
  IC50: 78.3 nM
BaF3 [40]
  IC50: 1.14 nM
BaF3 [41]
  IC50: 892 nM
BaF3 [42]
  IC50: 12.3 nM
BaF3 [43]
  IC50: 0.88 nM
BaF3 [44]
  IC50: 5.4 nM
BaF3 [45]
  IC50: 4.59 nM
BaF3 [46]
  IC50: 0.66 nM
BaF3 [47]
  IC50: 1.9 nM
BaF3 [48]
  IC50: 10.8 nM
BaF3 [49]
  IC50: 2.15 nM

Reference: ChEMBL document CHEMBL5365464, “Structure-Based Optimization of the Third Generation Type II Macrocycle TRK Inhibitors with Improved Activity against Solvent-Front, xDFG, and Gatekeeper Mutations” (J Med Chem, 2023)
